Results published in article PMC3818998 (Microbial Biotechnology, 2011).
Like-named read-outs stand apart in the source and are kept apart here.

Tests used:
GalG = GalG (Bifidobacterium breve, UniProt F9Y1U6); experiment: HPTLC of hydrolysis products; assay type: biochemical
GalR = target: T1, GalR (Bifidobacterium breve UCC2003, UniProt F9Y1U7 1-351); experiment: EMSA
T1 sequence: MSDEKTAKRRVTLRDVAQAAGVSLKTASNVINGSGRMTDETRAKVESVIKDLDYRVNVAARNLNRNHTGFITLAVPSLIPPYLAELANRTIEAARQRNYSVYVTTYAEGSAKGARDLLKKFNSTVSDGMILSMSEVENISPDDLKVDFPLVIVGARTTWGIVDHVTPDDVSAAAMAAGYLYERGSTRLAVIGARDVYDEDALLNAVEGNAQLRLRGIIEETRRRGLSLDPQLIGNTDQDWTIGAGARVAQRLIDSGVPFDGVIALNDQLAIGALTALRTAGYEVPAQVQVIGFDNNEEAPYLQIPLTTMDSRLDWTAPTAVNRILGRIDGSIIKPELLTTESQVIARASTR

With OC[C@H]1O[C@@H](O[C@@H]2[C@H](O)[C@@H](O)C(O)O[C@@H]2CO)[C@H](O)[C@@H](O)[C@H]1O (stereo partly shown) [galactobiose] the “HPTLC of hydrolysis products” value (GalG) was “The hydrolysis products of galactobiose and lactose following incubation with GalG”.

For OC[C@H]1O[C@@H](O[C@@H]2[C@H](O)[C@@H](O)[C@H](O[C@@H]3[C@H](O)[C@@H](O)C(O)O[C@@H]3CO)O[C@@H]2CO)[C@H](O)[C@@H](O)[C@H]1O (stereo partly shown) [galactotriose], the “HPTLC of hydrolysis products” value (GalG; galactotriose generated in situ from potato galactan by GalA or GalAT) was “Upon addition of GalG to the reaction mix the galactotriose is further hydrolysed”.

B1: galCIR1 (dsDNA)
DNA 1: TTAGGTATTGGTACACGGGTGTACCAAAGAAAACA
DNA 2: TGTTTTCTTTGGTACACCCGTGTACCAATACCTAA
B1: binds (GalR).

B2: galCIR2 (dsDNA)
DNA 1: TGACAAATTGGTACACAGGTGTATCATCTTAGGTA
DNA 2: TACCTAAGATGATACACCTGTGTACCAATTTGTCA
B2: binds (GalR).
